Earlier results as cited in patent US20220331235A1, “COMPOSITIONS FOR ORAL MICROADHESIVE DOSAGE FORMS” (FP NUTRACEUTICALS, LLC, priority 2018, published 2022).
Each block holds one molecule with its values, some of them ahead of it.

What was measured:
[1] = rat brain
[2] = vitamin B6: from food or supplements

Molecule: [O-2].[Zn+2] [Zn-oxide]
- plasma zinc rankings based on area under the curve and rank results per person: glycinate>gluconate>picolinate=oxide

Molecule: O=C([O-])c1cc(=O)[nH]c(=O)[nH]1.[Li+] [lithium orotate]
- level in the brain compared to the carbonate form [1]: three-fold higher

Molecule: NCC(=O)[O-].NCC(=O)[O-].[Zn+2] [zinc glycinate]
- bioavailability among four forms of zinc (oxide, picolinate, gluconate, glycinate) (acute uptake): highest bioavailability
- plasma zinc rankings based on area under the curve and rank results per person: glycinate>gluconate>picolinate=oxide
- increase in bioavailability over zinc gluconate (versus second most-bioavailable form): 43.4%

Molecule: zinc gluconate
- plasma zinc rankings based on area under the curve and rank results per person: glycinate>gluconate>picolinate=oxide

The remaining lines, values ahead:

- plasma zinc rankings based on area under the curve and rank results per person: glycinate>gluconate>picolinate=oxide
Molecule: O=C([O-])c1ccccn1.O=C([O-])c1ccccn1.[Zn+2] [Zn-picolinate]

- bioavailability [2]: 75-100%
Molecule: Cc1ncc(CO)c(CO)c1O [vitamin B6, pyridoxine]

- bioavailability [2]: 1-2%
Molecule: cobalamin [vitamin B12]
